Data set [1] is described as follows: Oral bioavailability in rat at 5 mg/kg. Format: ADME, organism-based. The note with it: in vivo.
The subject of data set [2] is Rattus norvegicus. Put plainly: Clearance in rat at 2 mg/kg, iv. The note with it: in vivo. The arrangement: dose 2 mg/kg, route intravenous. Type of data set: ADME, organism-based.
The nature of data set [3]: Cmax in rat at 5 mg/kg, po. Type of data set: ADME, organism-based. Also noted: dose 5 mg/kg, route oral. The note with it: in vivo.
The nature of data set [4]: Octanol-phosphate buffer partition coefficient, log D of the compound at pH 7.4. Format: physicochemical.
A short description of data set [5]: Aqueous solubility of the compound in phosphate buffer at pH 6.8 after 24 hrs. Type of data set: physicochemical.
Data set [6] is described as follows: Aqueous solubility of the compound in phosphate buffer at pH 2 after 24 hrs. Format: physicochemical.

Converted amounts (≈) assume the structure as drawn.

Turning to `CNc1ccc(-c2nc(=O)n(CC[C@@H]3CCCO3)c3c2oc2ncc(-c4cnn(C)c4)cc23)cn1`, the bioavailability in data set [1] amounted to 36%. The compound also showed a CL in data set [2] of 37%. The compound also showed a Cmax in data set [3] of 140 nM.
Compound `CCC1(OC)CC(n2c(=O)nc(-c3ccc(NC)nc3)c3oc4ncc(-c5cnn(C)c5)cc4c32)C1` (stereo not drawn) gave a logD in data set [4] of 2.9.
For the compound `CNc1ccc(-c2nc(=O)n(CCC3CCC(C)O3)c3c2oc2ncc(-c4cnn(C)c4)cc23)cn1` (stereo not drawn), the logD in data set [4] was found to be 3.2.
Still for that read-out and setting: to `Cn1cc(-c2cnc3oc4c(-c5ccncc5)nc(=O)n(CCC5CCCO5)c4c3c2)cn1` (stereo not drawn) belongs 1.8; to `CNc1ccc(-c2nc(=O)n(CCC3CCOCC3)c3c2oc2ncc(-c4cnn(C)c4)cc23)cn1`, 2.5; to `CC[C@H]1C[C@H](n2c(=O)nc(-c3ccc(NC)nc3)c3oc4ncc(-c5cnn(C)c5)cc4c32)CCO1` (racemic), 2.6.
`CC[C@H]1C[C@@H](n2c(=O)nc(-c3cnn(C)c3)c3oc4ccc(-c5cn(C)cn5)nc4c32)CCO1` (relative stereo): the logD in data set [4] was 2.7. In data set [1], the bioavailability was 69%. The CL in data set [2] amounted to 9.4%. The solubility at 24 h in data set [5] was 0.6 µg/mL (≈ 1.31 µM); in data set [6] it was greater than 480 µg/mL. In addition, the peak level in data set [3] (Cmax) was 3100 nM.
With `Cn1cc(-c2cnc3oc4c(-c5cnn(C)c5)nc(=O)n(CCC5CCCO5)c4c3c2)cn1` (stereo not drawn), the logD in data set [4] amounted to 1.5.
The compound `CC[C@H]1C[C@@H](n2c(=O)nc(-c3cnn(C)c3)c3oc4ncc(-c5cn(C)cn5)cc4c32)CCO1` (relative stereo) displayed a logD in data set [4] of 1.8. Moreover, the results for the solubility at 24 h in data set [5] and in data set [6] were 2.8 µg/mL (≈ 6.09 µM) and greater than 1000 µg/mL, respectively.
Take `CNc1ccc(-c2nc(=O)n(C(C)CC3CCCO3)c3c2oc2ncc(-c4cnn(C)c4)cc23)cn1` (stereo not drawn): in data set [4], the logD came to 3.3.
Turning to `CC[C@H]1C[C@@H](n2c(=O)nc(-c3ccc(NC)nc3)c3oc4ncc(-c5cnn(C)c5)cc4c32)CCO1` (racemic), the pH-dependent lipophilicity (logD) in data set [4] came out at 2.9. The same compound came in with a bioavailability in data set [1] of 34%. Further, the CL in data set [2] came to 19%. Further, the Cmax in data set [3] was found to be 1100 nM.
`COc1cc(-c2nc(=O)n(CCC3CCCO3)c3c2oc2ncc(-c4cnn(C)c4)cc23)ccn1` (stereo not drawn) yielded a logD in data set [4] of 2.8.
As to `COc1ccc(-c2nc(=O)n(CCC3CCCO3)c3c2oc2ncc(-c4cnn(C)c4)cc23)cc1` (stereo not drawn), the logD in data set [4] amounted to 3.5.
`CC[C@H]1C[C@@H](n2c(=O)nc(-c3cnn(C)c3)c3oc4cnc(-c5cn(C)cn5)cc4c32)CCO1` (relative stereo) came in with a logD in data set [4] of 2.6. The solubility at 24 h in data set [5] amounted to 5.3 µg/mL (≈ 11.5 µM); in data set [6] it was 420 µg/mL (≈ 914 µM).
Regarding `CNc1ccc(-c2nc(=O)n(CCC3CC(C)(C)CO3)c3c2oc2ncc(-c4cnn(C)c4)cc23)cn1` (stereo not drawn), in data set [4], the logD worked out at 3.4.
On the same count and under the same terms, to `CNc1ccc(-c2nc(=O)n(CCC3CCCO3)c3c2oc2ncc(-c4cnn(C)c4)cc23)nc1` (stereo not drawn) belongs 1.9.
Compound `CC[C@H]1C[C@@H](n2c(=O)nc(-c3cnn(C)c3)c3oc4cc(C#N)c(-c5cnn(C)c5)nc4c32)CCO1` (relative stereo) registered a logD in data set [4] of 2.7. Also, the bioavailability in data set [1] came out at 94%. The compound also returned a CL in data set [2] of 4.6%. The solubility at 24 h in data set [5] was determined as 2.1 µg/mL (≈ 4.33 µM); in data set [6], 7.9 µg/mL (≈ 16.3 µM). The Cmax in data set [3] came to 8900 nM.
As to `CC[C@H]1C[C@@H](n2c(=O)nc(-c3cnn(C)c3)c3oc4cnc(-c5cnn(C)c5)cc4c32)CCO1` (relative stereo), the logD in data set [4] was 2.2. This compound also yielded a bioavailability in data set [1] of 88%. The compound further had a CL in data set [2] of 18%. Moreover, the solubility at 24 h in data set [5] and in data set [6] was less than 0.1 µg/mL in each case. The compound also showed a Cmax in data set [3] of 1600 nM.
For `Cn1cc(-c2cnc3oc4c(-c5cccnc5)nc(=O)n(CCC5CCCO5)c4c3c2)cn1` (stereo not drawn), the logD in data set [4] amounted to 1.7.
On the same count and under the same terms, to `Cn1cc(-c2cnc3oc4c(-c5ccn(C)n5)nc(=O)n(CCC5CCCO5)c4c3c2)cn1` (stereo not drawn) belongs 0.9; to `Cn1cc(-c2cnc3oc4c(-c5cscn5)nc(=O)n(CCC5CCCO5)c4c3c2)cn1` (stereo not drawn), 1.5.
Same read-out and setting: to `COc1cncc(-c2nc(=O)n(CCC3CCCO3)c3c2oc2ncc(-c4cnn(C)c4)cc23)c1` (stereo not drawn) belongs 2.5; to `CN(C)c1cnc(-c2nc(=O)n(CCC3CCCO3)c3c2oc2ncc(-c4cnn(C)c4)cc23)cn1` (stereo not drawn), 2.
Compound `CC[C@H]1C[C@@H](n2c(=O)nc(-c3cnn(C)c3)c3oc4ccc(-c5cnn(C)c5)nc4c32)CCO1` (relative stereo) registered a logD in data set [4] of 3. The compound also yielded a bioavailability in data set [1] of 35%. For the same compound, in data set [2], the CL amounted to 18%. Moreover, the solubility at 24 h in data set [5] and in data set [6] was 0.2 µg/mL (≈ 0.435 µM) in each case. Also, in data set [3], the peak level (Cmax) was 460 nM.
Take `CC[C@H]1C[C@@H](n2c(=O)nc(-c3cnn(C)c3)c3oc4ccc(-c5cncn5C)cc4c32)CCO1` (relative stereo): the logD in data set [4] amounted to 2.3. In addition, the solubility at 24 h in data set [5] was 106 µg/mL (≈ 231 µM); in data set [6] it was greater than 920 µg/mL.
Take `CNc1ccc(-c2nc(=O)n(CCC3CCCO3)c3c2oc2ncc(-c4cnn(C)c4)cc23)cn1` (racemic): the logD in data set [4] worked out at 2.7.
Turning to `CC[C@H]1C[C@@H](n2c(=O)nc(-c3cnn(C)c3)c3oc4cc(C#N)c(-c5cnn(C)c5)cc4c32)CCO1` (relative stereo), the logD in data set [4] turned out to be 2.5. The solubility at 24 h in data set [5] and in data set [6] was 0.2 µg/mL (≈ 0.414 µM) each time.
On to `CC[C@H]1C[C@@H](n2c(=O)nc(-c3cnn(C)c3)c3oc4ccc(-c5cn(C)cn5)cc4c32)CCO1` (relative stereo), for which the logD in data set [4] turned out to be 2.6. This compound also yielded a bioavailability in data set [1] of 51%. In addition, in data set [2], the CL came out at 13%. Besides, the solubility at 24 h in data set [5] is 5 µg/mL (≈ 10.9 µM); in data set [6] it was greater than 1000 µg/mL. The Cmax in data set [3] is 1200 nM.
In turn, `CNc1ccc(-c2nc(=O)n(CCC3CCCCO3)c3c2oc2ncc(-c4cnn(C)c4)cc23)cn1` (stereo not drawn) showed a logD in data set [4] of 3.2.
Regarding `CC[C@H]1C[C@@H](n2c(=O)nc(-c3cnn(C)c3)c3oc4ccc(-c5cnn(C)c5)cc4c32)CCO1` (relative stereo), the logD in data set [4] stood at 3. The solubility at 24 h in data set [5] and in data set [6] was less than 0.1 µg/mL in each case.
As to `Cn1cc(-c2cnc3oc4c(-c5cn(C)nn5)nc(=O)n(CCC5CCCO5)c4c3c2)cn1` (stereo not drawn), the logD in data set [4] was found to be 1.5.
The same measure, in the same setting: to `CCn1cc(-c2nc(=O)n(CCC3CCCO3)c3c2oc2ncc(-c4cnn(C)c4)cc23)cn1` (stereo not drawn) belongs 2.2; to `COc1ccc(-c2nc(=O)n(CCC3CCCO3)c3c2oc2ncc(-c4cnn(C)c4)cc23)cn1` (stereo not drawn), 2.8.

The values above are taken from ChEMBL document CHEMBL2396591, “Identification of potent and orally bioavailable nucleotide competing reverse transcriptase inhibitors: in vitro and in vivo optimization of a series of benzofurano[3,2-d]pyrimidin-2-one derived inhibitors” (Bioorg Med Chem Lett, 2013).
